{"source": "patent US20110177541A1", "about": "“METHOD FOR ADJUSTING THE COAGULATION TIME IN CALIBRATOR OR CONTROL PLASMAS” (DIAGNOSTICA STAGO, priority 2010, published 2011)", "test_system": "plasma coagulation time (PT)", "assay": "Prothrombin time (PT) in STA NeoCl+ on treated (defrosted, pooled, excipient-supplemented, filtered) plasma", "type": "biochemical", "experimental": "The plasma bags were defrosted at 37° C.±2° C. in a defroster; once defrosted, the plasma was stabilized at 37° C.±2° C. for 30 minutes.\nThe bags were then pooled in a stainless steel container and the plasma was then homogenized using a magnetic stirrer.\nThe lyophilization excipients (lactose, saccharose, HEPES buffer) were added, stirring until dissolution was complete.\nA sample was taken to measure the pH, the conductivity and to determine the PT on a STA Neo Cl+ apparatus using STA-R (Diagnostica STAGO).\nThe plasma was filtered on a CRK1 cartridge (Millipore) and a sample was taken to determine the PT in the NeoCl+ after filtration. […]\nA sample of each point was tested in the STA NeoCl+; a range resulting from the addition of different concentrations of F VIIa was produced for each level as a function of the coagulation times obtained.\nFor each point, the concentration of added factor VIIa was determined as a function of the times on a reference graph obtained for fresh plasmas.\nThe F VIIa was then added, and homogenized and a sample of each point was taken in order to measure the pH, the conductivity and to determine the PT in the STA NeoCl+ using STA-R to verify that the desired times were indeed obtained, then each product was distributed and lyophilized.\nIn the table below, a range for procoagulant factor F VIIa has been produced for a range of concentrations of rivaroxaban."}
{"smiles": "O=C(NC[C@H]1CN(c2ccc(N3CCOCC3=O)cc2)C(=O)O1)c1ccc(Cl)s1", "note": "[rivaroxaban]", "values": [{"measurement": "PT divergence of treated plasma with respect to fresh plasma", "setting": "500 ng/mL of rivaroxaban, FIG. 1", "result": 13, "unit": "s"}, {"measurement": "Time in NeoCl+", "setting": "rivaroxaban 25 ng/mL, FVIIa 0 IU/mL", "result": 14.4, "unit": "s"}, {"measurement": "Time in NeoCl+", "setting": "rivaroxaban 25 ng/mL, FVIIa 0.1 IU/mL", "result": 13.7, "unit": "s"}, {"measurement": "Time in NeoCl+", "setting": "rivaroxaban 50 ng/mL, FVIIa 0 IU/mL", "result": 15.3, "unit": "s"}, {"measurement": "Time in NeoCl+", "setting": "rivaroxaban 50 ng/mL, FVIIa 0.2 IU/mL", "result": 14.3, "unit": "s"}, {"measurement": "Time in NeoCl+", "setting": "rivaroxaban 50 ng/mL, FVIIa 0.3 IU/mL", "result": 14.6, "unit": "s"}, {"measurement": "Time in NeoCl+", "setting": "rivaroxaban 50 ng/mL, FVIIa 0.4 IU/mL", "result": 14.6, "unit": "s"}, {"measurement": "Time in NeoCl+", "setting": "rivaroxaban 200 ng/mL, FVIIa 0 IU/mL", "result": 21.2, "unit": "s"}, {"measurement": "Time in NeoCl+", "setting": "rivaroxaban 200 ng/mL, FVIIa 0.1 IU/mL", "result": 19.8, "unit": "s"}, {"measurement": "Time in NeoCl+", "setting": "rivaroxaban 200 ng/mL, FVIIa 0.2 IU/mL", "result": 19, "unit": "s"}, {"measurement": "Time in NeoCl+", "setting": "rivaroxaban 250 ng/mL, FVIIa 0 IU/mL", "result": 23.5, "unit": "s"}, {"measurement": "Time in NeoCl+", "setting": "rivaroxaban 250 ng/mL, FVIIa 0.2 IU/mL", "result": 21, "unit": "s"}, {"measurement": "Time in NeoCl+", "setting": "rivaroxaban 250 ng/mL, FVIIa 0.3 IU/mL", "result": 20.3, "unit": "s"}, {"measurement": "Time in NeoCl+", "setting": "rivaroxaban 250 ng/mL, FVIIa 0.4 IU/mL", "result": 19.9, "unit": "s"}, {"measurement": "Time in NeoCl+", "setting": "rivaroxaban 500 ng/mL, FVIIa 0 IU/mL", "result": 32, "unit": "s"}, {"measurement": "Time in NeoCl+", "setting": "rivaroxaban 500 ng/mL, FVIIa 0.1 IU/mL", "result": 29.9, "unit": "s"}, {"measurement": "Time in NeoCl+", "setting": "rivaroxaban 500 ng/mL, FVIIa 0.2 IU/mL", "result": 28.4, "unit": "s"}, {"measurement": "Time in NeoCl+", "setting": "rivaroxaban 500 ng/mL, FVIIa 0.3 IU/mL", "result": 27.5, "unit": "s"}, {"measurement": "Time in NeoCl+", "setting": "rivaroxaban 500 ng/mL, FVIIa 0.4 IU/mL", "result": 26.8, "unit": "s"}, {"measurement": "Time in NeoCl+", "setting": "rivaroxaban 800 ng/mL, FVIIa 0 IU/mL", "result": 43.5, "unit": "s"}, {"measurement": "Time in NeoCl+", "setting": "rivaroxaban 800 ng/mL, FVIIa 0.2 IU/mL", "result": 38.3, "unit": "s"}, {"measurement": "Time in NeoCl+", "setting": "rivaroxaban 800 ng/mL, FVIIa 0.3 IU/mL", "result": 36.6, "unit": "s"}]}
